Numbered stars: 1 amine (or outer) side, 2 acyl side, 3 side chain; on linkers, the order of the positions; unused ones are H or OH. Bridge positions count the residues as written; N and C are the ends. Square brackets hold non-standard residues; d marks the D form. Peptide text beside a SMILES is read from it. * marks the point of attachment. Hydrocinnamoyl(4-Me) = Cc1ccc(CCC(=O)*)cc1; Glutaryl = O=C(CCCC(=O)[*:2])[*:1]; 1Naphthoyl = O=C(c1cccc2ccccc12)*; 2Naphthoyl = O=C(c1ccc2ccccc2c1)*; Suc = O=C(CCC(=O)[*:2])[*:1]; Isobutyryl = CC(C)C(=O)*; Orn = NCCC[C@H](N)C(=O)O; Dab = NCC[C@H](N)C(=O)O; Dap = NC[C@H](N)C(=O)O; Aoc = NCCCCCCCC(=O)O; Ahp = NCCCCCCC(=O)O; Bz = O=C(c1ccccc1)*; Ava = NCCCCC(=O)O; GABA = NCCCC(=O)O; βAla = NCCC(=O)O
Each compound was assayed on MCP-1 (assay: In vitro chemotaxis (trans-well migration) v MCP-1).
Type: cell-based, human
How it was run: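 Trans-well migration toward IL-8 or MCP-1 placed below, with agent added to THP-1 cells (10^4-10^6) in the top well and incubation at 37° C (e.g. 4 hours). MTT absorbance at 595 nm, interpolated on a cell standard curve, gives migrated cell numbers; TGFβ-type negative control and cytotoxicity check included.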

First: CC[C@H](C)[C@@H]1NC(=O)[C@H](Cc2c[nH]c3ccccc23)NC(=O)[C@H](CCCCN)NC(=O)[C@@H](NC(C)=O)CNC(=O)C[C@@H](C(N)=O)NC(=O)[C@H](CCC(N)=O)NC1=O [Example 117, Ac-c(Dap-Lys-Trp-Ile-Gln-Asp)-NH2] (Ac-[Dap]KWIQD-NH2; lactam 1-6)
Second: CC[C@H](C)[C@@H]1NC(=O)[C@H](Cc2c[nH]c3ccccc23)NC(=O)[C@H](CCCCN)NC(=O)[C@@H](NC(C)=O)CCCCNC(=O)CC[C@@H](C(N)=O)NC(=O)[C@H](CCC(N)=O)NC1=O [Example 124, Ac-c(Lys-Lys-Trp-Ile-Gln-Glu)-NH2] (Ac-KKWIQE-NH2; lactam 1-6)
The EC50 of the first is 1.6-fold lower: 5 nM for the first, 8 nM for the second.

Going from `CC[C@H](C)[C@@H]1NC(=O)[C@H](Cc2c[nH]c3ccccc23)NC(=O)[C@H](CCCCN)NC(=O)CCCC(=O)NC[C@@H](C(N)=O)NC(=O)[C@H](CCC(N)=O)NC1=O` [Example 127, c(Glutaryl-Lys-Trp-Ile-Gln-Dap)-NH2NH2] (KWIQ[Dap]-NH2; linker N-5 via Glutaryl) to `CC[C@@H](C)[C@H]1NC(=O)[C@@H](CCC(N)=O)NC(=O)CCCCNC(=O)C[C@H](C(N)=O)NC(=O)[C@@H](CCCCN)NC(=O)[C@@H](Cc2c[nH]c3ccccc23)NC1=O` [Example 197, c(Apn-D-Gln-D-Ile-D-Trp-D-Lys-D-Asp)-NH2] ([Ava][dQ][dI][dW][dK][dD]-NH2; lactam N-6), the EC50 rises from 7 nM to 20 nM (2.9-fold). The first is the more potent here.

`CC[C@H](C)[C@@H]1NC(=O)[C@H](Cc2c[nH]c3ccccc23)NC(=O)[C@H](CCCCN)NC(=O)CCCCCCNC(=O)C[C@@H](C(N)=O)NC(=O)[C@H](CCC(N)=O)NC1=O` [Example 93, c(Aha-Lys-Trp-Ile-Gln-Asp)-NH2] ([Ahp]KWIQD-NH2; lactam N-6) and `CC[C@H](C)[C@H](NC(=O)[C@H](Cc1c[nH]c2ccccc12)NC(=O)[C@H](CCCCN)NC(=O)[C@H](CC(=O)O)NC(=O)C(C)C)C(=O)N[C@@H](CCC(N)=O)C(=O)N[C@@H](CCCCN)C(N)=O` [Example 201, Isobutyryl-Asp-Lys-Trp-Ile-Gln-Lys-NH2] (Isobutyryl-DKWIQK-NH2) are within 1.5-fold of each other in EC50: 8 nM for the first, 10 nM for the second.

First: CC[C@H](C)[C@@H]1NC(=O)[C@H](Cc2c[nH]c3ccccc23)NC(=O)[C@H](CCCCN)NC(=O)[C@@H](NC(=O)C(C)C)CCCCNC(=O)C[C@@H](C(N)=O)NC(=O)[C@H](CCC(N)=O)NC1=O [Example 106, Isobutyryl-c(Lys-Lys-Trp-Ile-Gln-Asp)-NH2] (Isobutyryl-KKWIQD-NH2; lactam 1-6)
Second: CC[C@@H](C)[C@H]1NC(=O)[C@@H](CCC(N)=O)NC(=O)CCNC(=O)C[C@H](C(N)=O)NC(=O)[C@@H](CC(C)C)NC(=O)[C@@H](CC(=O)O)NC(=O)[C@H]2CCCN2C(=O)[C@@H](CCCCN)NC(=O)[C@@H](CCC(N)=O)NC(=O)[C@@H](CCCCN)NC(=O)[C@@H](Cc2c[nH]c3ccccc23)NC1=O [Example 199, c(βAla-D-Gln-D-Ile-D-Trp-D-Lys-D-Gln-D-Lys-D-Pro-D-Asp-D-Leu-D-Asp)-NH2] ([βAla][dQ][dI][dW][dK][dQ][dK][dP][dD][dL][dD]-NH2; lactam N-11)
The EC50 of the first is 2.5-fold lower: 8 nM for the first, 20 nM for the second. The first is the more potent here.

Compared with `CC[C@H](C)[C@@H]1NC(=O)[C@H](Cc2c[nH]c3ccccc23)NC(=O)[C@H](CCCCN)NC(=O)CCCCCCCNC(=O)CC[C@@H](C(N)=O)NC(=O)[C@H](CCC(N)=O)NC1=O` [Example 96, c(Aoc-Lys-Trp-Ile-Gln-Glu)-NH2] ([Aoc]KWIQE-NH2; lactam N-6), `CC[C@H](C)[C@@H]1NC(=O)[C@H](Cc2c[nH]c3ccccc23)NC(=O)[C@H](CCCCN)NC(=O)[C@@H](NC(=O)C(C)C)CCNC(=O)CC[C@@H](C(N)=O)NC(=O)[C@H](CCC(N)=O)NC1=O` [Example 107, Isobutyryl-c(Dab-Lys-Trp-Ile-Gln-Glu)-NH2] (Isobutyryl-[Dab]KWIQE-NH2; lactam 1-6) is 2-fold higher in EC50: 4 nM for the first, 8 nM for the second.

Compared with `CC[C@H](C)[C@@H]1NC(=O)[C@H](Cc2c[nH]c3ccccc23)NC(=O)[C@H](CCCCN)NC(=O)[C@@H](NC(C)=O)CCC(=O)NCCC[C@@H](C(N)=O)NC(=O)[C@H](CCC(N)=O)NC1=O` [Example 115, Ac-c(Glu-Lys-Trp-Ile-Gln-Orn)-NH2] (Ac-EKWIQ[Orn]-NH2; lactam 1-6), `CC[C@H](C)[C@@H]1NC(=O)[C@H](Cc2c[nH]c3ccccc23)NC(=O)[C@H](CCCCN)NC(=O)[C@@H](NC(C)=O)CCC(=O)NCCCC[C@@H](C(N)=O)NC(=O)[C@H](CCC(N)=O)NC1=O` [Example 116, Ac-c(Glu-Lys-Trp-Ile-Gln-Lys)-NH2] (Ac-EKWIQK-NH2; lactam 1-6) is 1.6-fold higher in EC50: 5 nM for the first, 8 nM for the second.

`CC[C@H](C)[C@@H]1NC(=O)[C@H](Cc2c[nH]c3ccccc23)NC(=O)[C@H](CCCCN)NC(=O)CCCNC(=O)C[C@@H](C(N)=O)NC(=O)[C@H](CCC(N)=O)NC1=O` [Example 60, c(Gaba-Lys-Trp-Ile-Gln-Asp)-NH2] ([GABA]KWIQD-NH2; lactam N-6) and `CC[C@H](C)[C@@H]1NC(=O)[C@H](Cc2c[nH]c3ccccc23)NC(=O)[C@H](CCCCN)NC(=O)CCCNC(=O)CC[C@@H](C(N)=O)NC(=O)[C@H](CCC(N)=O)NC1=O` [Example 61, c(Gaba-Lys-Trp-Ile-Gln-Glu)-NH2] ([GABA]KWIQE-NH2; lactam N-6) are within 1.5-fold of each other in EC50: 30 nM for the first, 25 nM for the second.

First: CC[C@@H](C)[C@H]1NC(=O)[C@@H](CCC(N)=O)NC(=O)[C@H](NC(=O)c2ccccc2)CSSC[C@H](C(N)=O)NC(=O)[C@@H](CCCCN)NC(=O)[C@@H](Cc2c[nH]c3ccccc23)NC1=O [Example 192, Benzoyl-c(D-Cys-D-Gln-D-Ile-D-Trp-D-Lys-D-Cys)-NH2] (Bz-[dC][dQ][dI][dW][dK][dC]-NH2; disulfide 1-6)
Second: CC[C@@H](C)[C@H]1NC(=O)[C@@H](CCC(N)=O)NC(=O)[C@H](NC(C)=O)CSSC[C@H](C(N)=O)NC(=O)[C@@H](CC(C)C)NC(=O)[C@@H](CC(=O)O)NC(=O)[C@H]2CCCN2C(=O)[C@@H](CCCCN)NC(=O)[C@@H](CCC(N)=O)NC(=O)[C@@H](CCCCN)NC(=O)[C@@H](Cc2c[nH]c3ccccc23)NC1=O [Example 198, Ac-c(D-Cys-D-Gln-D-Ile-D-Trp-D-Lys-D-Gln-D-Lys-D-Pro-D-Asp-D-Leu-D-Cys)-NH2] (Ac-[dC][dQ][dI][dW][dK][dQ][dK][dP][dD][dL][dC]-NH2; disulfide 1-11)
The EC50 of the first is 2.9-fold lower: 7 nM for the first, 20 nM for the second. The first is the more potent here.

First: CC[C@H](C)[C@@H]1NC(=O)[C@H](Cc2c[nH]c3ccccc23)NC(=O)[C@H](CCCCN)NC(=O)[C@@H](NC(=O)C(C)C)CC(=O)NC[C@@H](C(N)=O)NC(=O)[C@H](CCC(N)=O)NC1=O [Example 6, Isobutyryl-c(Asp-Lys-Trp-Ile-Gln-Dap)-NH2] (Isobutyryl-DKWIQ[Dap]-NH2; lactam 1-6)
Second: CC[C@H](C)[C@@H]1NC(=O)[C@H](Cc2c[nH]c3ccccc23)NC(=O)[C@H](CCCCN)NC(=O)[C@@H](NC(=O)c2cccc3ccccc23)CSSC[C@@H](C(N)=O)NC(=O)[C@H](CCC(N)=O)NC1=O [Example 68, 1-Naphthoyl-c(Cys-Lys-Trp-Ile-Gln-Cys)-NH2] (1Naphthoyl-CKWIQC-NH2; disulfide 1-6)
The EC50 of the first is 6-fold lower: 5 nM for the first, 30 nM for the second.

First: CC[C@H](C)[C@@H]1NC(=O)[C@H](Cc2c[nH]c3ccccc23)NC(=O)[C@H](CCCCN)NC(=O)CCC(=O)NCC[C@@H](C(N)=O)NC(=O)[C@H](CCC(N)=O)NC1=O [Example 126, c(Succinyl-Lys-Trp-Ile-Gln-Dab)-NH2] (KWIQ[Dab]-NH2; linker N-5 via Suc)
Second: CC[C@H](C)[C@@H]1NC(=O)[C@H](Cc2c[nH]c3ccccc23)NC(=O)[C@H](CCCCN)NC(=O)[C@@H](NC(=O)c2ccc3ccccc3c2)CSSC[C@@H](C(N)=O)NC(=O)[C@H](CCC(N)=O)NC1=O [Example 69, 2-Naphthoyl-c(Cys-Lys-Trp-Ile-Gln-Cys)-NH2] (2Naphthoyl-CKWIQC-NH2; disulfide 1-6)
The EC50 of the first is 2.5-fold lower: 6 nM for the first, 15 nM for the second. The first is the more potent here.

Going from `CC[C@H](C)[C@@H]1NC(=O)[C@@H](N)CSSC[C@@H](C(N)=O)NC(=O)[C@H](CCC(N)=O)NC1=O` [Example 86, c(Cys-Ile-Gln-Cys)-NH2] (H-CIQC-NH2; disulfide 1-4) to `CC[C@H](C)[C@@H]1NC(=O)[C@H](Cc2c[nH]c3ccccc23)NC(=O)[C@H](CCCCN)NC(=O)[C@@H](NC(C)=O)CSSC[C@@H](C(N)=O)NC(=O)[C@@H](CCC(N)=O)NC1=O` [Example 75, Ac-c(Cys-Lys-Trp-Ile-D-Gln-Cys)-NH2] (Ac-CKWI[dQ]C-NH2; disulfide 1-6), the EC50 rises from 7.5 nM to 25 nM (3.3-fold). The first is the more potent here.

Going from `CC[C@H](C)[C@@H]1NC(=O)[C@@H](Cc2c[nH]c3ccccc23)NC(=O)[C@H](CCCCN)NC(=O)[C@@H](NC(C)=O)CSSC[C@@H](C(N)=O)NC(=O)[C@H](CCC(N)=O)NC1=O` [Example 77, Ac-c(Cys-Lys-D-Trp-Ile-Gln-Cys)-NH2] (Ac-CK[dW]IQC-NH2; disulfide 1-6) to “[aminoPeg10-oxaglutaryl]-c(D-Cys-D-Gln-D-Ile-D-Trp-D-Lys-D-Gln-D-Lys-D-Pro-D-Asp-D-Leu-D-Cys)-NH2 [Example 187]”, the EC50 rises from 20 nM to 66 nM (3.3-fold).

First: CC[C@H](C)[C@@H]1NC(=O)[C@H](Cc2c[nH]c3ccccc23)NC(=O)[C@H](CCCCN)NC(=O)[C@@H](NC(=O)C(C)C)CCNC(=O)C[C@@H](C(N)=O)NC(=O)[C@H](CCC(N)=O)NC1=O [Example 105, Isobutyryl-c(Dab-Lys-Trp-Ile-Gln-Asp)-NH2] (Isobutyryl-[Dab]KWIQD-NH2; lactam 1-6)
Second: CC[C@H](C)[C@@H]1NC(=O)[C@H](Cc2c[nH]c3ccccc23)NC(=O)[C@H](CCCCN)NC(=O)[C@@H](NC(C)=O)CCC(=O)NC[C@@H](C(N)=O)NC(=O)[C@H](CCC(N)=O)NC1=O [Example 113, Ac-c(Glu-Lys-Trp-Ile-Gln-Dap)-NH2] (Ac-EKWIQ[Dap]-NH2; lactam 1-6)
The EC50 of the first is 2-fold lower: 15 nM for the first, 30 nM for the second.

Compound `CC[C@H](C)[C@@H]1NC(=O)[C@H](Cc2c[nH]c3ccccc23)NC(=O)[C@H](CCCCN)NC(=O)[C@@H](NC(=O)CCc2ccc(C)cc2)CSSC[C@@H](C(N)=O)NC(=O)[C@H](CCC(N)=O)NC1=O` [Example 80, (Des-amino-4-methyl)Phe-c(Cys-Lys-Trp-Ile-Gln-Cys)-NH2] ({Hydrocinnamoyl(4-Me)}-CKWIQC-NH2; disulfide 1-6) has an EC50 of 10 nM.
